This passage reports GI50 and IC50 results from US20220340547A1, “INDOLE DERIVATIVE-CONTAINING INHIBITOR, PREPARATION METHOD THEREFOR AND APPLICATION THEREOF” (Shanghi Hansoh Biosoh Biomedical Co., Ltd., priority 2019, published 2022).

Test [1] addresses Ba/F3 EGFR-D770-N771ins_SVD (Homo sapiens, UniProt P00533, DUP768-770, cells depend on it). Kind of test: Proliferation of Ba/F3 EGFR mutant cell line (CellTiter-Glo). The format is cell-based, mouse. The conditions noted are these: 72 h to 144 h, read-out: Ba/F3 EGFR-D770-N771ins_SVD IC50. On the procedure:
Determination of the Inhibitory Effect of the Compound of the Present Invention on the Proliferation of Ba/F3 EGFR Mutant Cell Line and A431 Cell Line
(§1) Experimental objective: The objective of this test example is to determine the inhibitory effect of the compound on the proliferation of Ba/F3 EGFR mutant cell line and A431 cell line
(§2) Experimental instruments: Microplate reader (BioTek Synergy H1), pipette (Eppendorf & Rainin).
Ba/F3 EGFR mutant cells were cultured, and harvested after reaching a suitable density. The cells were adjusted to an appropriate cell concentration with the complete medium. The cell suspension were spread on a 96-well plate (90 μL per well), and the plate was placed in a 37° C., 5% CO2 incubator overnight to let the cells adhere to the wall. Solutions of the compound at different concentrations were formulated with DMSO and culture medium. Solvent control was set. […] CellTiter-Glo solution was added and mixed well by shaking, and the plate was incubated in the dark for 10 minutes. The values were measured by BioTek Synergy H1 microplate reader.
(§3) Experimental Data Processing Method:
(§4) The inhibition rate was calculated using the […] signal value. The concentration and inhibition rate were fitted to a nonlinear regression curve by Graphpad Prism software to obtain the IC50 value.
In general terms: In ATP-based viability assays light output follows the ATP content of the culture.

A further test addresses EGFR D770_N771insNPG (Homo sapiens, UniProt P00533, INS770NPG). Kind of test: TR-FRET inhibition of kinase activity of EGFR exon 20 insertion mutation. The format is biochemical.
Description: Determination of the Inhibitory Effect of the Compound of the Present Invention on the Kinase Activity of EGFR Exon 20 Insertion Mutation
Experimental objective: The objective of this test example is to determine the inhibitory effect of the compound on the kinase activity of EGFR exon 20 insertion mutation.
Experimental process: The experiment applied the TR-FRET (time-resolved fluorescence resonance energy transfer) method to study the inhibitory effect of the compound on the kinase activity of EGFR exon 20 insertion mutation. The experiment was carried out in a 384-well plate. Experimental buffer (50 mM HEPES, 1 mM EGTA, 10 mM MgCl2, 2 mM DTT, 0.01% Tween-20) was formulated. The compound was diluted in gradient to different concentrations with the experimental buffer. 2.5 μL of the solution was added to each well of the 384-well plate. 2.5 μL of diluted EGFR kinase solution (0.001-0.5 nM) was added, and the plate was incubated at room temperature for 10 minutes. 5 μL of ULight-poly GT/ATP mixed solution was added, and the plate was incubated at room temperature for 30 to 60 minutes. 5 μL of EDTA stop solution and 5 μL of Eu-labeled antibody detection solution were added, and the plate was incubated at room temperature for 1 hour.
as §3
The concentration and inhibition rate were fitted to a nonlinear regression curve by Graphpad Prism software to obtain the IC50 value.

A further test deals with A431 cell line. Kind of test: Proliferation of A431 cell line (CellTiter-Glo). As to conditions: Homo sapiens, A-431, 72 h. The class given is cell-based. Here is the method: Test Example 3. Determination of the Inhibitory Effect of the Compound of the Present Invention on the Proliferation of Ba/F3 EGFR Mutant Cell Line and A431 Cell Line
as §1, §2
A431 cells were cultured, and harvested after reaching a suitable density. The cells were adjusted to an appropriate cell concentration with the complete medium. The cell suspension were spread on a 96-well plate (90 μL per well), and the plate was placed in a 37° C., 5% CO2 incubator overnight to let the cells adhere to the wall. Solutions of the compound at different concentrations were formulated with DMSO and culture medium. Solvent control was set. The solution of the compound was added to the 96-well plate ([…]), and the plate was incubated in the 37° C., 5% CO2 incubator for 72 h. CellTiter-Glo solution was added and mixed well by shaking, and the plate was incubated in the dark for 10 minutes. The values were measured by BioTek Synergy H1 microplate reader.
as §3, §4

Chain of EGFR D770_N771insNPG (P00533 with tags, fused parts or gaps INS770NPG limits assumed): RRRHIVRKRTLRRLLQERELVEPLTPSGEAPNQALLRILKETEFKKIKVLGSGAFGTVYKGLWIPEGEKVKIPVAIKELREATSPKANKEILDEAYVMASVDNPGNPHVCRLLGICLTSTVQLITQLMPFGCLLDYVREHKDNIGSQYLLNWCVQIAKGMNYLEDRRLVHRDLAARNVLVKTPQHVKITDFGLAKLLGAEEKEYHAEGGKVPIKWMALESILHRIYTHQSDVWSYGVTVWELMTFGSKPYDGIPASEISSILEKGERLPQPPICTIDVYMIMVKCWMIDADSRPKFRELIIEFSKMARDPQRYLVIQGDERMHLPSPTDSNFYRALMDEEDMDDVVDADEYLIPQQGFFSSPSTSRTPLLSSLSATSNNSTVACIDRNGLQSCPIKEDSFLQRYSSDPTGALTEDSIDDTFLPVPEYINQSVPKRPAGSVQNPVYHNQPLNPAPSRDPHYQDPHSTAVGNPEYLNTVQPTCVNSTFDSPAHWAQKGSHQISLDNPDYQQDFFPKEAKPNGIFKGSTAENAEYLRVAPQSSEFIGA
Chain of Ba/F3 EGFR-D770-N771ins_SVD (P00533 with tags, fused parts or gaps DUP768-770): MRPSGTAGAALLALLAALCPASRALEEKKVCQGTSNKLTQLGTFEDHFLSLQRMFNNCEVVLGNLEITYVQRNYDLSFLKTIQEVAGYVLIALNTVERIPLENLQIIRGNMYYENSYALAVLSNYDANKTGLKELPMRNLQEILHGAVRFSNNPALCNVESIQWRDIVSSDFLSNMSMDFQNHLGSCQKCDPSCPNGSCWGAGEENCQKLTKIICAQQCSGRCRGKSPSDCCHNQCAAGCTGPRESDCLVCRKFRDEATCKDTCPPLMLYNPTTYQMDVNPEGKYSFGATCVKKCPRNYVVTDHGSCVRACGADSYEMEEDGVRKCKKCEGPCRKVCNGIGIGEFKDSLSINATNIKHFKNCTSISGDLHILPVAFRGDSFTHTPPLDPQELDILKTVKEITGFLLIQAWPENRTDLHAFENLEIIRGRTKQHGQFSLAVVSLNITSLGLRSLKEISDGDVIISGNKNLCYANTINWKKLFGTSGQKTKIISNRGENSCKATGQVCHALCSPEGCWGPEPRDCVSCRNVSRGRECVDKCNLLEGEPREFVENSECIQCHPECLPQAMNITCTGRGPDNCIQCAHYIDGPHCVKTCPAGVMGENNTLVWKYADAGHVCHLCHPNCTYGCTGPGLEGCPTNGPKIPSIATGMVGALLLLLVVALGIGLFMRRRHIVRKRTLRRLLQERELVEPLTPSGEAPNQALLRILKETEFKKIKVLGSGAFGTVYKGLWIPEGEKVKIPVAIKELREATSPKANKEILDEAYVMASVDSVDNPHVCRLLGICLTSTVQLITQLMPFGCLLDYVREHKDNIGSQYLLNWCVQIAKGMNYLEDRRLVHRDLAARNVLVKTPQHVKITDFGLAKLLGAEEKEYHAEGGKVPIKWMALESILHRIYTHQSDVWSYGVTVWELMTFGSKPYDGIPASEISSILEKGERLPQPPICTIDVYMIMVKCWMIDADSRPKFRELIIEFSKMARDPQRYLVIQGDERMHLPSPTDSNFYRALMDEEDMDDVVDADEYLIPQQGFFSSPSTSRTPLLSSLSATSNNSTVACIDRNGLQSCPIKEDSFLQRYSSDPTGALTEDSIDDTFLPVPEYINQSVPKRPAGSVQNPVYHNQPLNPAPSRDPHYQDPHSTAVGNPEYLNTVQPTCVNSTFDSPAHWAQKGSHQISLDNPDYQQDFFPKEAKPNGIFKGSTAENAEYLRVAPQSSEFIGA

For orientation: IC50 means the concentration at which inhibition is half-maximal. Regarding `C=CC(=O)Nc1cc(Nc2ncc(C#N)c(-c3cn(C4CC4)c4ccc(OC)cc34)n2)c(OC)cc1N(C)CCN(C)C` [Example 118, N-(5-((5-Cyano-4-(1-cyclopropyl-5-methoxy-1H-indol-3-yl)pyrimidin-2-yl)amino)-2-((2-(dimethylamino)ethyl)(methyl)amino)-4-methoxyphenyl)acrylamide], the GI50 in test [1] turned out to be 45.1 nM. Moreover, the IC50 on EGFR D770_N771insNPG was found to be 0.55 nM; with A431 cell line it was 201 nM.

As for `C=CC(=O)Nc1cc(Nc2ncc(C#N)c(-c3cn(C4CC4)c4ccccc34)n2)c(OC)cc1N1C[C@H]2CN(C)C[C@H]2C1` [Example 35, N-(5-((5-Cyano-4-(1-cyclopropyl-1H-indol-3-yl)pyrimidin-2-yl)amino)-4-methoxy-2-((3aR,6aS)-5-methylhexahydropyrrolo[3,4-c]pyrrol-2(1H)-yl)phenyl)acrylamide], in test [1], the GI50 came out at 24.8 nM. Moreover, the IC50 on EGFR D770_N771insNPG came to 0.43 nM; with A431 cell line, 162 nM.

As to `C=CC(=O)Nc1cc(Nc2ncc(-c3ncco3)c(-c3cn(C4CC4)c4ccccc34)n2)c(OC)cc1N(C)CC1CCCN1C` (stereo not shown) [Example 38, N-(5-((4-(1-Cyclopropyl-1H-indol-3-yl)-5-(oxazol-2-yl)pyrimidin-2-yl)amino)-4-methoxy-2-(methyl((1-methylpyrrolidin-2-yl)methyl)amino)phenyl)acrylamide], the GI50 in test [1] stood at 34.6 nM. For the same molecule, the IC50 is 0.45 nM at EGFR D770_N771insNPG and 146 nM in the test with A431 cell line.

On to `C=CC(=O)Nc1cc(Nc2ncc(-c3ncco3)c(-c3cn(C4CC4)c4ccccc34)n2)c(OC)cc1N1CC[C@@H](N(C)C)C1` [Example 57, (R)—N-(5-((4-(1-Cyclopropyl-1H-indol-3-yl)-5-(oxazol-2-yl)pyrimidin-2-yl)amino)-2-(3-(dimethylamino)pyrrolidin-1-yl)-4-methoxyphenyl)acrylamide], for which, in test [1], the GI50 stood at 28.1 nM. Also, the 50% inhibitory concentration (IC50) against EGFR D770_N771insNPG is 0.82 nM; in the test with A431 cell line, 113 nM.

As for `CC#CC(=O)Nc1cc(Nc2ncc(C(=O)OC(C)C)c(-c3cn(C)c4ccccc34)n2)c(OC)cc1N(C)CC1CCCN1C` (stereo not shown) [Example 1, Isopropyl 2-((5-(but-2-ynamido)-2-methoxy-4-(methyl((1-methylpyrrolidin-2-yl)methyl)amino)phenyl)amino)-4-(1-methyl-1H-indol-3-yl)pyrimidine-5-carboxylate], the GI50 in test [1] stood at 76 nM. Moreover, in the test with A431 cell line, the IC50 was found to be 537 nM.

Take `C=CC(=O)Nc1cc(Nc2ncc(-c3ncco3)c(-c3cn(C4CC4)c4ccccc34)n2)c(OC)cc1N1CC(N2CCCC2)C1` [Example 53, N-(5-((4-(1-Cyclopropyl-1H-indol-3-yl)-5-(oxazol-2-yl)pyrimidin-2-yl)amino)-4-methoxy-2-(3-(pyrrolidin-1-yl)azetidin-1-yl)phenyl)acrylamide]: the GI50 in test [1] worked out at 21.7 nM. Besides, the IC50 was 0.5 nM on EGFR D770_N771insNPG and 182 nM with A431 cell line.

`C=CC(=O)Nc1cc(Nc2ncc(C#N)c(-c3cn(C4CC4)c4cc(OC)c(F)cc34)n2)c(OC)cc1N(C)CCN(C)C` [Example 127, N-(5-((5-Cyano-4-(1-cyclopropyl-5-fluoro-6-methoxy-1H-indol-3-yl)pyrimidin-2-yl)amino)-2-((2-(dimethylamino)ethyl)(methyl)amino)-4-methoxyphenyl)acrylamide]: the GI50 in test [1] was 13.4 nM. Besides, the IC50 at EGFR D770_N771insNPG came to 0.18 nM; in the test with A431 cell line, 46.6 nM.

With `C=CC(=O)Nc1cc(Nc2ncc(-c3ncco3)c(-c3cn(C4CC4)c4ccccc34)n2)c(OC)cc1N1C[C@@H]2CCN(C)[C@@H]2C1` (relative stereo) [Example 40, Cis N-(5-((4-(1-Cyclopropyl-1H-indol-3-yl)-5-(oxazol-2-yl)pyrimidin-2-yl)amino)-4-methoxy-2-(1-methylhexahydropyrrolo[3,4-b]pyrrol-5(1H)-yl)phenyl)acrylamide], in test [1], the GI50 worked out at 34.6 nM. Also, the IC50 was found to be 0.55 nM on EGFR D770_N771insNPG and 133 nM in the test on A431 cell line.

`C=CC(=O)Nc1cc(Nc2ncc(-c3ccn(C)n3)c(-c3cn(C4CC4)c4ccccc34)n2)c(OC)cc1N1C[C@H]2CN(C)C[C@H]2C1` [Example 71, N-(5-((4-(1-Cyclopropyl-1H-indol-3-yl)-5-(1-methyl-1H-pyrazol-3-yl)pyrimidin-2-yl)amino)-4-methoxy-2-((3aR,6aS)-5-methylhexahydropyrrolo[3,4-c]pyrrol-2(1H)-yl)phenyl)acrylamide]: the GI50 in test [1] is 54.9 nM. Besides, the IC50 in the test on A431 cell line came to 238 nM.

With `C=CC(=O)Nc1cc(Nc2ncc(-c3ncco3)c(-c3cn(C4CC4)c4ccccc34)n2)c(OC)cc1N1C[C@H]2CN(C)C[C@H]2C1` [Example 36, N-(5-((4-(1-Cyclopropyl-1H-indol-3-yl)-5-(oxazol-2-yl)pyrimidin-2-yl)amino)-4-methoxy-2-((3aR,6aS)-5-methylhexahydropyrrolo[3,4-c]pyrrol-2(1H)-yl)phenyl)acrylamide], the GI50 in test [1] is 27.1 nM. The IC50 with A431 cell line was 439 nM.

For the molecule `C=CC(=O)Nc1cc(Nc2ncc(-c3ncco3)c(-c3cn(C4CC4)c4ccccc34)n2)c(OC)cc1N1CC[C@H](N(C)C)C1` [Example 56, (S)—N-(5-((4-(1-Cyclopropyl-1H-indol-3-yl)-5-(oxazol-2-yl)pyrimidin-2-yl)amino)-2-(3-(dimethylamino)pyrrolidin-1-yl)-4-methoxyphenyl)acrylamide], the GI50 in test [1] worked out at 45.3 nM. In the test with A431 cell line, the IC50 came to 144 nM.

As to `C=CC(=O)Nc1cc(Nc2ncc(-c3cccnc3)c(-c3cn(C4CC4)c4ccccc34)n2)c(OC)cc1N1C[C@H]2CN(C)C[C@H]2C1` [Example 64, N-(5-((4-(1-Cyclopropyl-1H-indol-3-yl)-5-(pyridin-3-yl)pyrimidin-2-yl)amino)-4-methoxy-2-((3aR,6aS)-5-methylhexahydropyrrolo[3,4-c]pyrrol-2(1H)-yl)phenyl)acrylamide], the GI50 in test [1] was 17.4 nM. For the same molecule, the values for the IC50 on EGFR D770_N771insNPG and in the test on A431 cell line were 0.39 nM and 28.9 nM, respectively.

In the case of `C=CC(=O)Nc1cc(Nc2ncc(-c3nccs3)c(-c3cn(C4CC4)c4ccccc34)n2)c(OC)cc1N1C[C@H]2CN(C)C[C@H]2C1` [Example 45, N-(5-((4-(1-Cyclopropyl-1H-indol-3-yl)-5-(thiazol-2-yl)pyrimidin-2-yl)amino)-4-methoxy-2-((3aR,6aS)-5-methylhexahydropyrrolo[3,4-c]pyrrol-2(1H)-yl)phenyl)acrylamide], the GI50 in test [1] stood at 53.4 nM. Moreover, the results for the IC50 at EGFR D770_N771insNPG and with A431 cell line were 1 nM and 210 nM, respectively.

Turning to `C=CC(=O)Nc1cc(Nc2ncc(C#N)c(-c3cn(C4COC4)c4cc(OC)ccc34)n2)c(OC)cc1N(C)CCN(C)C` [Example 137, N-(5-((5-Cyano-4-(6-methoxy-1-(oxetan-3-yl)-1H-indol-3-yl)pyrimidin-2-yl)amino)-2-((2-(dimethylamino)ethyl)(methyl)amino)-4-methoxyphenyl)acrylamide], in test [1], the GI50 amounted to 9.78 nM. Also, the IC50 turned out to be 0.16 nM against EGFR D770_N771insNPG and 18.2 nM with A431 cell line.

With `C=CC(=O)Nc1cc(Nc2ncc(-c3ccccc3)c(-c3cn(C4CC4)c4ccccc34)n2)c(OC)cc1N1C[C@H]2CN(C)C[C@H]2C1` [Example 47, N-(5-((4-(1-Cyclopropyl-1H-indol-3-yl)-5-phenylpyrimidin-2-yl)amino)-4-methoxy-2-((3aR,6aS)-5-methylhexahydropyrrolo[3,4-c]pyrrol-2(1H)-yl)phenyl)acrylamide], in test [1], the GI50 came out at 33.1 nM. Also, the IC50 in the test with A431 cell line turned out to be 51.7 nM.
